According to publication PMC8718748, “Molecular Dissection of the Primase and Polymerase Activities of Deep-Sea Phage NrS-1 Primase-Polymerase” (Frontiers in Microbiology, 2021):

Tests used:
N300 [1] = target: T1, N300 (Nitratiruptor phage NrS-1, UniProt M5AAG8); assay: X-ray crystal structure of complex (SeMet, SAD, […] A); type: binding; details: Ca2+ (200 mM calcium acetate in crystals), pH 7.0; active site, 3'-site nucleotide
T1 construct: gene 28; N-terminal 300 residues (Prim/Pol domain + helix bundle domain) of NrSPol; pET28b, 6xHis with TEV site, tag cut for crystals (SeMet for ddCTP crystal); E. coli

N300 [2] = target: T1, N300; assay: X-ray crystal structure of complex (native, […] A); type: binding; details: Mg2+; crystallised with ddCTP and ssDNA, pH 4.5; active site

T1 sequence (M5AAG8 1-300): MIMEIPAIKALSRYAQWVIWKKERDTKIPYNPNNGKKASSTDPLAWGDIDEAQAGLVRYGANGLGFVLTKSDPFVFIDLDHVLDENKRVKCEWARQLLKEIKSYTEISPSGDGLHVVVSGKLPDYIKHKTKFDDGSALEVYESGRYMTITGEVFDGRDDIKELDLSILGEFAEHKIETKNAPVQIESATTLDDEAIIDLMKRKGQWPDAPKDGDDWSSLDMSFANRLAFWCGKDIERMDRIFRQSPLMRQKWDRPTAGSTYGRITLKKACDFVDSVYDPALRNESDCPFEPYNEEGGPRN

Row | Compound | X-ray crystal structure of complex (SeMet, SAD, 2.24 A) (N300 [1]) | X-ray crystal structure of complex (native, 1.86 A) (N300 [2])
1 | Nc1ccn([C@H]2CC[C@@H](COP(=O)(O)OP(=O)(O)OP(=O)(O)O)O2)c(=O)n1 [ddCTP] | we determined the crystal structures of N300 in complex with ddCTP | 
2 | O=P(O)(O)OP(=O)(O)O [pyrophosphate] |  | a pyrophosphate (PPi) occupies the active site instead of ddCTP
